# Patent US20050026950A1, “Methods of therapeutic treatment using retinoids to achieve consistent bioavailability” (Allergan, Inc., priority 2003, published 2005)
# Experiments:
# Format in all cases: in vivo, human
# [1] = Two placebo-controlled 24-week safety studies of oral tazarotene plus 16- to 24-week dose-response evaluations
# Experimental: Two multicenter, double-blind, randomized, placebo-controlled 24-week studies of identical design are conducted to evaluate the safety of oral tazarotene. In addition, 16- to 24-week dose-response evaluations are performed.
# In the two safety trials, the incidence of adverse side effects with a 4.5 mg dose administered orally once daily is compared to the incidence of the same side effects with a placebo. […] The majority of these were mild in severity and typical of adverse effects associated with oral retinoids.
# [2] = tested on: moderate to very severe plaque psoriasis; test: Open-label extension study of oral tazarotene in plaque psoriasis non-responders
# [3] = PK and PD interaction studies of oral tazarotene and oral contraceptives in healthy volunteers; details: orally, up to 6 mg once daily
# Experimental: It is the objective of this study to determine if there are pharmacokinetic (PK) and pharmacodynamic (PD) interactions between tazarotene and commonly prescribed oral contraceptives (OCs) when coadministered together.
# Three separate clinical studies are conducted to evaluate the PK and PD interactions of oral tazarotene and OCs in healthy volunteers. Two studies evaluate daily doses of norethindrone (NE)/ethinyl estradiol (EE) with daily doses of tazarotene 1.1 mg (N=27) and 6 mg (N=29). The third study assesses the daily doses of norgestimate (NGM)/EE with daily doses of tazarotene 6 mg (N=26). OCs are administered for three consecutive menstrual cycles. Daily doses of tazarotene are started during the 2nd cycle and continued through the end of the studies. PK parameters for EE, NE, and NGM (AUC0-24 and Cmax) are determined before tazarotene dosing and after tazarotene dosing on day 6 of the 2nd and 3rd cycles. Serum concentrations of luteinizing hormone (LH) and follicle-stimulating hormone (FSH)-markers of contraceptive efficacy are also evaluated before tazarotene dosing and after tazarotene dosing on days 2, 4, and 6 of the 2nd and 3rd cycles. Serum progesterone levels are assessed on days 18 and 20 of the 2nd and 3rd cycles. […]
# severe psoriasis = test: Patient with severe psoriasis taking Ortho-Novum treated with tazarotene; details: 6 mg per day, after 30 days
# Description: The patient presents symptoms of severe psoriasis. The symptoms include lesions approximately 4 to 10 centimeters across appearing as raised patches of wine red skin many of which are covered in silvery white scales. The lesions are mostly dry and rough, and quite often noticeably warm to the touch. The lesions are present on the elbows, knees, scalp, and groin area. The patient experiences intense burning and itching associated with the lesions.
# The patient is currently taking Ortho-Novum® for contraception.
# Tazarotene at a dose of 6 mg per day is prescribed.
# [4] = Studies of orally administered tazarotene for acne, adverse event monitoring; details: combined data from Studies 1 and 2 (N = 223)
# Experimental: Studies are conducted on orally administered tazarotene for the treatment of acne. Adverse events (side effects) are monitored.
# [5] = Phase 3 studies of orally administered tazarotene for psoriasis, adverse event monitoring; details: Taz 4.5 mg
# Experimental: A series of Phase 3 studies are conducted on orally administered tazarotene for the treatment of psoriasis. Adverse events (side effects) are monitored. In addition, published data for acitretin's side effects are also considered.
# [6] = 4.5 mg orally once daily, two safety trials
# [7] = 4.5 mg once daily, 12-week extension
# [8] = 4.5 mg once daily, 12-week extension, across both groups
# [9] = Study 3, treated 3 months (N = 220)
# [10] = Study 3, treated 6 months (N = 92)
# [11] = combined data from Studies 1 and 2 (N = 348)
smiles,measurement,setting,value
CCOC(=O)c1ccc(C#Cc2ccc3c(c2)C(C)(C)CCS3)nc1 [tazarotene],incidence of agitation,[1]; 4.5 mg orally once daily,< 1%
same,"incidence of altered hormone levels (TSH, T4, thyroid function test)",[1]; 4.5 mg orally once daily,0%
same,incidence of anxiety,[1]; 4.5 mg orally once daily,1%
same,incidence of depression,[1]; 4.5 mg orally once daily,1%
same,incidence of emotional lability,[1]; 4.5 mg orally once daily,3%
same,incidence of psychosis,[1]; 4.5 mg orally once daily,0%
same,incidence of psychotic depression,[1]; 4.5 mg orally once daily,0%
same,"incidence of hypertriglyceridemia, hypercholesterolemia, abnormal liver function tests, increased ALT/AST, desquamation, eye dryness, alopecia",[1]; 4.5 mg orally once daily vs placebo,essentially the same incidence with oral tazarotene as with placebo
same,incidence of arthralgia,[1]; [6],17%
same,incidence of back pain,[1]; [6],7%
same,incidence of cheilitis,[1]; [6],66%
same,incidence of dermatitis,[1]; [6],1%
same,incidence of dry skin,[1]; [6],24%
same,incidence of foot pain,[1]; [6],3%
same,incidence of headache,[1]; [6],19%
same,incidence of hyperglycemia,[1]; [6],2%
same,incidence of joint disorder,[1]; [6],4%
same,incidence of myalgia,[1]; [6],14%
same,incidence of nasal dryness,[1]; [6],4%
same,incidence of rash,[1]; [6],3%
same,incidence of patients discontinuing due to adverse effects,[1]; 0.4 to 1.1 mg oral (n=105),approximately 2%
same,incidence of patients discontinuing due to adverse effects,[1]; 2.1 to 2.8 mg oral (n=21),10%
same,changes in liver function test values or cholesterol levels,[2]; [7],no clinically significant changes
same,serious adverse events related to study treatment,[2]; [7],no serious adverse events considered related to the study treatment
same,incidence of arthralgia,[2]; [8],20%
same,incidence of asthenia,[2]; [8],6%
same,incidence of back pain,[2]; [8],11%
same,incidence of cheilitis,[2]; [8],70%
same,incidence of dry skin,[2]; [8],25%
same,incidence of headache,[2]; [8],11%
same,incidence of hypertriglyceridemia,[2]; [8],6%
same,incidence of infection,[2]; [8],10%
same,incidence of myalgia,[2]; [8],15%
same,"Clinical success (a 2-grade reduction in OLA), patients",[2]; end of the 12-week post-treatment period,16%
same,effect on the PK or efficacy of NE/EE and NGM/EE oral contraceptives,[3],does not affect
same,psoriasis symptoms and lesions,severe psoriasis,symptoms of itching and burning are relieved and the severity of their lesions are substantially lessened
same,Cheilitis,[4],134 (60.1) number (%) of patients
same,Conjunctivitis,[4],0 (0.0) number (%) of patients
same,Desquamation central face/Desquamation,[4],1 (0.4) number (%) of patients
same,Dry Skin,[4],79 (35.4) number (%) of patients
same,Dry nose,[4],7 (3.1) number (%) of patients
same,Epistaxis,[4],6 (2.7) number (%) of patients
same,Fingertip peeling/Desquamation,[4],1 (0.4) number (%) of patients
same,Headache,[4],26 (11.7) number (%) of patients
same,Irritation of eyes,[4],0 (0.0) number (%) of patients
same,Joint pain/Arthralgia,[4],18 (8.1) number (%) of patients
same,Peeling/Desquamation,[4],1 (0.4) number (%) of patients
same,Pruritus,[4],10 (4.5) number (%) of patients
same,Rash-dermatitis/Rash,[4],7 (3.1) number (%) of patients
same,Red Scaly face/Desquamation,[4],1 (0.4) number (%) of patients
same,Skin fragility/Skin disorder,[4],1 (0.4) number (%) of patients
same,Alopecia,[5]; [9],1 (0.5) number (%) of patients
same,Arthralgia,[5]; [9],28 (12.7) number (%) of patients
same,Atrophy of skin,[5]; [9],0 (0.0) number (%) of patients
same,Back pain,[5]; [9],7 (3.2) number (%) of patients
same,Cheilitis,[5]; [9],149 (67.7) number (%) of patients
same,Dry Skin,[5]; [9],47 (21.4) number (%) of patients
same,Dry mouth/Oral dryness,[5]; [9],11 (5.0) number (%) of patients
same,Epistaxis,[5]; [9],1 (0.5) number (%) of patients
same,Erythematous rash/Erythema,[5]; [9],0 (0.0) number (%) of patients
same,Hyperesthesia,[5]; [9],0 (0.0) number (%) of patients
same,Nail Disorder,[5]; [9],1 (0.5) number (%) of patients
same,Paresthesia,[5]; [9],3 (1.4) number (%) of patients
same,Paronychia/Nail disorder,[5]; [9],1 (0.5) number (%) of patients
same,Pruritus,[5]; [9],11 (5.0) number (%) of patients
same,Rhinitis,[5]; [9],0 (0.0) number (%) of patients
same,Rigors/Chills,[5]; [9],1 (0.5) number (%) of patients
same,Skin peeling/Desquamation,[5]; [9],3 (1.4) number (%) of patients
same,Sticky skin/Skin disorder,[5]; [9],0 (0.0) number (%) of patients
same,Xerophthalmia/Eye disorder,[5]; [9],3 (1.4) number (%) of patients
same,Alopecia,[5]; [10],5 (5.4) number (%) of patients
same,Arthralgia,[5]; [10],30 (32.6) number (%) of patients
same,Atrophy of skin,[5]; [10],0 (0.0) number (%) of patients
same,Back pain,[5]; [10],10 (10.9) number (%) of patients
same,Cheilitis,[5]; [10],65 (70.7) number (%) of patients
same,Dry Skin,[5]; [10],24 (26.1) number (%) of patients
same,Dry mouth/Oral dryness,[5]; [10],2 (2.2) number (%) of patients
same,Epistaxis,[5]; [10],0 (0.0) number (%) of patients
same,Erythematous rash/Erythema,[5]; [10],0 (0.0) number (%) of patients
same,Hyperesthesia,[5]; [10],0 (0.0) number (%) of patients
same,Nail Disorder,[5]; [10],1 (1.1) number (%) of patients
same,Paresthesia,[5]; [10],1 (1.1) number (%) of patients
same,Paronychia/Nail disorder,[5]; [10],1 (1.1) number (%) of patients
same,Pruritus,[5]; [10],3 (3.3) number (%) of patients
same,Rhinitis,[5]; [10],0 (0.0) number (%) of patients
same,Rigors/Chills,[5]; [10],1 (1.1) number (%) of patients
same,Skin peeling/Desquamation,[5]; [10],1 (1.1) number (%) of patients
same,Sticky skin/Skin disorder,[5]; [10],0 (0.0) number (%) of patients
same,Xerophthalmia/Eye disorder,[5]; [10],1 (1.1) number (%) of patients
same,Alopecia,[5]; [11],1 (0.3) number (%) of patients
same,Arthralgia,[5]; [11],60 (17.2) number (%) of patients
same,Atrophy of skin,[5]; [11],0 (0.0) number (%) of patients
same,Back pain,[5]; [11],16 (4.6) number (%) of patients
same,Cheilitis,[5]; [11],228 (65.5) number (%) of patients
same,Dry Skin,[5]; [11],82 (23.6) number (%) of patients
same,Dry mouth/Oral dryness,[5]; [11],11 (3.2) number (%) of patients
same,Epistaxis,[5]; [11],2 (0.6) number (%) of patients
same,Erythematous rash/Erythema,[5]; [11],2 (0.6) number (%) of patients
same,Hyperesthesia,[5]; [11],0 (0.0) number (%) of patients
same,Nail Disorder,[5]; [11],2 (0.6) number (%) of patients
same,Paresthesia,[5]; [11],7 (2.0) number (%) of patients
same,Paronychia/Nail disorder,[5]; [11],2 (0.6) number (%) of patients
same,Pruritus,[5]; [11],21 (6.0) number (%) of patients
same,Rhinitis,[5]; [11],8 (2.3) number (%) of patients
same,Rigors/Chills,[5]; [11],9 (2.6) number (%) of patients
same,Skin peeling/Desquamation,[5]; [11],3 (0.9) number (%) of patients
same,Sticky skin/Skin disorder,[5]; [11],1 (0.3) number (%) of patients
same,Xerophthalmia/Eye disorder,[5]; [11],8 (2.3) number (%) of patients
